Each structure is given as a SMILES string. ≈ marks a conversion by molar mass, not a printed value.

Data set [1] concerns isolates of Aspergillus species. Conditions: cited from earlier work.
In data set [2] the target is lanosterol 14α—demethylase. Conditions: target enzyme in the fungus; read-out: IC50 against lanosterol 14α-demethylase; cited from earlier work.
For data set [3], the system named is A. fumigatus s 1008. Put plainly: In vitro MIC, NCCLS M38P broth method (RPMI 1640/MOPS pH7), Aspergillus fumigatus. Type of data set: cell-based. As to conditions: A. fumigatus strain 1008.
The test system of data set [4] is Cryptococcus neoformans. Put plainly: In vitro MIC, NCCLS M27A, Cryptococcus neoformans. Type of data set: cell-based. On the set-up: MIC, C. neoformans I: unit not given beside the values; MIC, C. neoformans M 106: unit not given here. Conditions: for MIC, C. neoformans I: C. neoformans strain I; for MIC, C. neoformans M 106: C. neoformans strain M 106.
Data set [5] concerns Candida. Put plainly: In vitro MIC, NCCLS M27A, Candida species. Also on record: MIC, Candida albicans 1.549 / MIC, Candida albicans Y-01-19 / MIC, C. krusei 766-1 / MIC, C. krusei Q. C / MIC, Candida tropicalis ATCC / MIC, C. glabrata 90030: unit not given beside the values; MIC, Candida albicans A 26 / MIC, C. parapsilosis Q. C.: unit not given here. Conditions: for MIC, C. glabrata 90030: C. glabrata strain 90030; for MIC, C. krusei 766-1: C. krusei strain 766-1; for MIC, C. krusei Q. C: C. krusei strain Q. C; for MIC, C. parapsilosis Q. C.: C. parapsilosis strain Q. C.; for MIC, Candida albicans 1.549: Candida albicans strain 1.549; for MIC, Candida albicans A 26: Candida albicans strain A 26; for MIC, Candida albicans Y-01-19: Candida albicans strain Y-01-19. Type of data set: cell-based.

Data set [6] relates to Histoplasma capsulatum. It counts as cell-based.

For orientation: IC50 means the concentration that gives 50% inhibition. In the case of `OC(Cn1cncn1)(Cn1cncn1)c1ccc(F)cc1F` [fluconazole], the “minimum inhibitory concentration (MIC)” value in data set [1] is 400 µg/mL (≈ 1310 µM). Further, the concentration for half-maximal inhibition (IC50) in data set [2] is 4.8 µM.
As usually defined, the melting point is the temperature of the solid-liquid transition. `O=c1n(-c2ccc(N3CCN(c4ccc(F)cc4F)CC3)cc2)cnn1CC(O)(Cn1cncn1)c1ccc(F)cc1F` (centres unmarked) [Compound 52, 2-[2-(2,4-Difluorophenyl)-2-hydroxy-3-(1H-1,2,4-triazol-1-yl)propyl]-4-{4-[4-(2,4-difluorophenyl)-1-piperazinyl]phenyl}-3-(2H,4H)-1,2,4-triazolone] showed a melting point of 157 to 158 °C. Further, the “MIC, A. fumigatus 1008” value in data set [3] is more than 16. For the same compound, in data set [4], the “MIC, C. neoformans I” value is less than 0.03 and the “MIC, C. neoformans M 106” value is less than 0.03. Also, in data set [5], the “MIC, C. glabrata 90030” value is on record as 1.00; the “MIC, C. krusei 766-1” value was 4.00; the “MIC, C. krusei Q. C” value is reported as 0.50; the “MIC, C. parapsilosis Q. C.” value is on record as less than 0.03. Further, in data set [5], the “MIC, Candida albicans 1.549” value turned out to be 0.06; the “MIC, Candida albicans A 26” value was less than 0.03; the “MIC, Candida albicans Y-01-19” value is on record as 0.12; the “MIC, Candida tropicalis ATCC” value is on record as less than 0.03. Further, the MIC, H. capsulatum in data set [6] was less than 0.03 µg/mL.
On to `O=c1n(-c2ccc(N3CCN(c4ccc(Cl)cc4Cl)CC3)cc2)cnn1CC(O)(Cn1cncn1)c1ccc(F)cc1F` (centres unmarked) [Compound 50, 2-[2-(2,4-Difluorophenyl)-2-hydroxy-3-(1H-1,2,4-triazol-1-yl)propyl]-4-{4-[4-(2,4-dichlorophenyl)-1-piperazinyl]phenyl}-3-(2H,4H)-1,2,4-triazolone], for which the melting point fell in the range of 97 to 99 °C. Moreover, the “MIC, A. fumigatus 1008” value in data set [3] is recorded as 2.00. In data set [4], the “MIC, C. neoformans I” value is given as less than 0.03 and the “MIC, C. neoformans M 106” value is less than 0.03. Moreover, in data set [5], the “MIC, C. glabrata 90030” value came out at 0.50; the “MIC, C. krusei 766-1” value is reported as 0.50; the “MIC, C. krusei Q. C” value worked out at 0.25; the “MIC, C. parapsilosis Q. C.” value is given as less than 0.03. Further, in data set [5], the “MIC, Candida albicans 1.549” value was 0.12; the “MIC, Candida albicans A 26” value is less than 0.03; the “MIC, Candida albicans Y-01-19” value is 0.12; the “MIC, Candida tropicalis ATCC” value is reported as less than 0.03. Moreover, in data set [6], the MIC, H. capsulatum was less than 0.03 µg/mL.
As for `CCc1ccccc1N1CCN(c2ccc(-n3cnn(CC(O)(Cn4cncn4)c4ccc(F)cc4F)c3=O)cc2)CC1` (centres unmarked) [Compound 60, 2-[2-(2,4-Difluorophenyl)-2-hydroxy-3-(1H-1,2,4-triazol-1-yl)propyl]-4-{4-[4-(2-ethylphenyl)-1-piperazinyl]phenyl}-3-(2H,4H)-1,2,4-triazolone], the melting point lay in the range of 148 to 150 °C. Further, the “MIC, A. fumigatus 1008” value in data set [3] was more than 16. In addition, in data set [4], the “MIC, C. neoformans I” value is less than 0.03 and the “MIC, C. neoformans M 106” value is listed as less than 0.03. In data set [5], the “MIC, C. glabrata 90030” value amounted to 0.50; the “MIC, C. krusei 766-1” value worked out at 1.00; the “MIC, C. krusei Q. C” value was 0.25; the “MIC, C. parapsilosis Q. C.” value was less than 0.03. Further, in data set [5], the “MIC, Candida albicans 1.549” value is recorded as more than 16; the “MIC, Candida albicans A 26” value is on record as less than 0.03; the “MIC, Candida albicans Y-01-19” value is listed as 0.25; the “MIC, Candida tropicalis ATCC” value is on record as less than 0.03. In data set [6], this compound showed an MIC, H. capsulatum of less than 0.03 µg/mL.

The values above are taken from patent publication US6670363B1, “Azole compounds as therapeutic agents for fungal infections” (Ranbaxy Laboratories Limited, priority 2000, dated 2003).
